In patent publication US5049550A, “Diadenosine 5', 5'"-p^1, p^4,-tetraphosphate analogs as antithrombotic agents” (Worcester Foundation for Experimental Biology, priority 1988, dated 1991):

Experiments:
[1] = system: rabbit platelet aggregation by collagen; assay: Collagen-induced aggregation of rabbit platelets; format: cell-based
Experimental: Rabbit carotid arterial blood was collected in 3.8% sodium citrate (9 volumes blood to 1 volume citrate). Platelet rich plasma (PRP) and platelet poor plasma (PPP) were prepared by centrifugation at 150 g and 1,000 g for 10 minutes respectively. Aggregation studies were performed in a Chrono-Log (Havertown, Pa.) aggregometer with ADP or collagen as aggregating agents. ADP (Sigma Chemical Co.) was used in a final concentration of 2×10^-5 M. Calf skin collagen (Sigma Chemical Co.) was used in a final concentration of 200 ug/ml.
The effect of AP4 A on rabbit platelet aggregation by ADP and collagen was tested. […] The anti-aggregatory effect of AP4 A was detected at a concentration of 2×10^-4 M (tenfold that of ADP) and increased in a dose-response pattern with increasing concentrations (FIG. 1).

[2] = system: ADP-induced platelet aggregation; assay: Kinetics of ADP-induced platelet aggregation (double-reciprocal plot); format: cell-based; details: FIG. 6
Experimental: Changes in light transmission reflecting the velocity of ADP-induced platelet aggregability was determined using a platelet aggregometer. Born, G.V.P., Nature 184:927-929 (1962). […] The Y points on the X-intercept are altered by factors [formula] where I is the concentration of inhibitor, and Ki is a characteristic constant. Points on the X-intercept are given by the expression [formula] intercept when [I]=0. When [I] is known, the equation can be solved for Ki.

[3] = plasma; cited from earlier work

For `Nc1ncnc2c1ncn2[C@@H]1O[C@H](COP(=O)(O)OP(=O)(O)OP(=O)(O)OP(=O)(O)OC[C@H]2O[C@@H](n3cnc4c(N)ncnc43)[C@H](O)[C@@H]2O)[C@@H](O)[C@H]1O` [AP4 A, diadenosine 5',5'"-p^1,p^4 -tetraphosphate], the “effect on preformed aggregates caused by collagen” value ([1]; added after aggregation, collagen 200 ug/ml (FIG. 2)) was “no effect”, the “effect on collagen-induced aggregation” value ([1]; added prior to induction, collagen 200 ug/ml (FIG. 3B)) was “inhibiting slightly” and the “effect on collagen-induced platelet aggregation” value ([1]; same dose that almost completely inhibits ADP-induced aggregation) was “little or no effect”. For the same compound, the Ki ([2]; competitive inhibition of ADP-induced aggregation) was 17.1 µM, the “type / relative strength of inhibition” value ([2]; double reciprocal plot) was “competitive inhibition” and the degradation products [3] was “degraded to AMP and ATP”.
